From patent US9605064B2, “Methods and compositions for treatment of skin disorders” (AbbVie Biotechnology Ltd, priority 2006, dated 2017)
Where “and” joins values, the source holds several entries; their conditions need not be identical. Equal values may be shown once. Marks after values point to notes of the source that are not given here.

System: patients with moderate to severe chronic plaque psoriasis
Experiment: PASI response, Phase II 12-week placebo-controlled trial with 48-week extension
Assay type: in vivo, human
Conditions: for Number of Patients Who Qualified for Dosage Escalation: 40 mg eow (n = 12); for PASI 50 (% patients) After Dose Escalation / PASI 75 (% patients) After Dose Escalation / PASI 90 (% patients) After Dose Escalation: escalation from eow to weekly dosing
Text: Efficacy outcome measures included PASI and PGA.
The two primary clinical outcome measures used in this study were the psoriasis area and severity index (PASI) and the physician's global assessment (PGA). PASI improvement of greater than or equal to 75% (used as an endpoint in psoriasis clinical trials) at week 12 was the primary efficacy outcome measure for this study. PASI is a composite index indicating severity for three main signs of psoriatic plaques (erythema, scaling, and thickness), weighted by the amount of coverage of these plaques in four main body areas, i.e., head, trunk, upper extremities, and lower extremities. PASI scores, which range from 0-72, with higher scores indicating greater severity, were assessed at screening, baseline, week 1, week 2, week 4, week 8, week 12/early termination, and follow-up.
Skin and safety outcomes were assessed up to Week 60.
Analytical methods included the following: • Analyses of clinical data were performed on a modified intention-to-treat population (ITT). […] Patients whose dosages were increased on or after Week 24 were considered non-responders; • Patients with similar percentage PASI improvement across treatment arms were pooled into four strata: PASI<50, PASI 50-74, PASI 75-99, and PASI 100; and • Week-60 distribution of DLQI scores, mean DLQI scores, and mean change in DLQI from Week 0-60 were calculated within each stratum.
Frequently used as an endpoint in psoriasis clinical trials, the PASI [25] was the primary efficacy outcome in this trial. PASI is a composite index indicating the severity of the three main signs of psoriatic plaques (i.e., erythema, scaling, and thickness) and is weighted by the amount of coverage of these plaques in the four main body areas (head, trunk, upper extremities, and lower extremities). PASI scores range from 0-72, with higher scores indicating greater disease severity. PASI was assessed at screening and baseline, at Weeks 1, 2, 4, 8, and 12/Early Termination, and at the final follow-up visit.
At week 12, placebo patients received an 80-mg loading dose, then 40 mg every other week. […] Patients who receive the rescue therapy were considered non-responders in this analysis.

[1] = 40 mg eow, Week 60, modified ITT, NRI
[2] = 40 mg weekly, Week 60, modified ITT, NRI
[3] = (placebo→eow+eow) group, week 60, observed analysis
[4] = Efficacy at Weeks 24-60 (n = 22)
[5] = Week 12, adalimumab 40 mg eow, modified ITT, NRI
[6] = Week 12, adalimumab 40 mg weekly, modified ITT, NRI
[7] = Week 24, adalimumab 40 mg eow, modified ITT, NRI
[8] = Week 24, adalimumab 40 mg weekly, modified ITT, NRI
[9] = Week 24, placebo/adalimumab 40 mg eow (adalimumab from Week 12), modified ITT, NRI
[10] = Week 36, adalimumab 40 mg eow, modified ITT, NRI
[11] = Week 36, adalimumab 40 mg weekly, modified ITT, NRI
[12] = Week 36, placebo/adalimumab 40 mg eow (adalimumab from Week 12), modified ITT, NRI
[13] = Week 60, adalimumab 40 mg eow, modified ITT, NRI

“Adalimumab: a human anti-TNF mAb, described in U.S. Pat. No. 6,090,382 as D2E7 (HUMIRA, Abbott Laboratories)” was tested, and the “Number of Patients Who Qualified for Dosage Escalation” value (“Number of Patients Who Qualified” for short) (Week 24) was 9, the “Number of Patients Who Qualified” value (Week 28) was 1 and the “Number of Patients Who Qualified” value (Week 32) was 0. For the same substance, the “Number of Patients Who Qualified” value (Week 44) was 1, the “Number of Patients Who Qualified” value (Week 52) was 0 and the “Number of Patients Who Qualified” value (Week 60) was 1. For the same substance, the “patients with sustained, clinically significant improvement” value (40 mg eow dosing) was ~80%, the “Overall PASI 75 response rate” value (40 mg eow, Week 12, modified ITT, NRI) was 53* % of Patients and the “Overall PASI 75 response rate” value (40 mg eow, Week 24, modified ITT, NRI) was 64 % of Patients. The “Overall PASI 75 response rate” value (40 mg eow, Week 36, modified ITT, NRI) was 64 % of Patients, the “Overall PASI 75 response rate” value [1] was 58 % of Patients and 56 % of Patients and the “PASI 50 response rate” value [1] was 64 % Patients. For the same substance, the “PASI 90 response rate” value [1] was 33 % Patients, the “PASI 100 response rate” value [1] was 16 % Patients and the “Overall PASI 75 response rate” value (40 mg eow, Week 60, modified ITT, NRI, listed as adalimumab) was 58 % of Patients. The “mean percentage PASI improvement” value (40 mg every other week dosage of placebo/adalimumab, week 60) was 69%, the “mean percentage PASI improvement” value (40 mg of adalimumab alone, on a weekly basis, week 60) was 69% and the “Overall PASI 75 response rate” value (40 mg weekly, Week 12, modified ITT, NRI) was 80* % of Patients. The “Overall PASI 75 response rate” value (40 mg weekly, Week 24, modified ITT, NRI) was 72 % of Patients, the “Overall PASI 75 response rate” value (40 mg weekly, Week 36, modified ITT, NRI) was 68 % of Patients and the “Overall PASI 75 response rate” value [2] was 64 % of Patients. The “PASI 50 response rate” value [2] was 66 % Patients, the “PASI 90 response rate” value [2] was 48 % Patients and the “PASI 100 response rate” value [2] was 26 % Patients. For the same substance, the “mean percentage PASI improvement” value (40 mg weekly, week 60) was 84%, the “PASI 75-99 response rate” value [3] was 38 and the “PASI 100 response rate” value [3] was 17. For the same substance, the “PASI 75 Response at Week 60, patients eligible for dose escalation” value (Adalimumab 40 mg eow (n = 9)) was 22% (2/9), the “PASI 50 (% patients) After Dose Escalation” value (Efficacy at Week 60 (n = 22)) was 36% and the “PASI 75 (% patients) After Dose Escalation” value (Efficacy at Week 60 (n = 22)) was 18%. For the same substance, the “PASI 90 (% patients) After Dose Escalation” value (Efficacy at Week 60 (n = 22)) was 0%, the “PASI 50 (% patients) After Dose Escalation” value [4] was 55% and the “PASI 75 (% patients) After Dose Escalation” value [4] was 23%. For the same substance, the “PASI 90 (% patients) After Dose Escalation” value [4] was 5%, the “PASI 75 Response at Week 60, patients eligible for dose escalation” value (Placebo/Adalimumab 40 mg eow (n = 13)) was 15% (2/13) and the “Percentages of Patients with > PASI 75 Response” value (Week 12, 40 mg eow (Table 79)) was 53%. For the same substance, the “Percentages of Patients with > PASI 75 Response” value (Week 12, 40 mg weekly (Table 79)) was 80%, the “Percentage of patients who achieved PASI 100” value (Week 12, adalimumab 40 mg eow, NRI) was 11* % and the “PASI 50 (% patients)” value [5] was 76%. The “Percentage of patients who achieved PASI 75” value [5] was 53%, the “Percentage of patients who achieved PASI 90” value [5] was 24% and the “Percentage of patients who achieved PASI 100” value (Week 12, adalimumab 40 mg weekly, NRI) was 26* %. For the same substance, the “PASI 50 (% patients)” value [6] was 88%, the “Percentage of patients who achieved PASI 75” value [6] was 80% and the “Percentage of patients who achieved PASI 90” value [6] was 48%. For the same substance, the “Patients Eligible for Dose Escalation (<PASI 50 response), number” value (“Patients Eligible … number” below) (Week 24, Adalimumab 40 mg eow (n = 9)) was 5, the “Patients Eligible … number” value (Week 24, Placebo/Adalimumab 40 mg eow (n = 13)) was 5 and the “Percentage of patients who achieved PASI 100” value (Week 24, adalimumab 40 mg eow, NRI) was 13%. For the same substance, the “Percentage of patients who achieved PASI 75” value [7] was 64%, the “Percentage of patients who achieved PASI 90” value [7] was 42% and the “Percentage of patients who achieved PASI 100” value (Week 24, adalimumab 40 mg weekly, NRI) was 24%. The “Percentage of patients who achieved PASI 75” value [8] was 72%, the “Percentage of patients who achieved PASI 90” value [8] was 62% and the “Percentage of patients who achieved PASI 100” value (Week 24, placebo/adalimumab 40 mg eow (adalimumab from Week 12), NRI) was 11%. For the same substance, the “Percentage of patients who achieved PASI 75” value [9] was 55%, the “Percentage of patients who achieved PASI 90” value [9] was 32% and the “Patients Eligible … number” value (Week 28, Adalimumab 40 mg eow (n = 9)) was 1. For the same substance, the “Patients Eligible … number” value (Week 28, Placebo/Adalimumab 40 mg eow (n = 13)) was 2, the “Patients Eligible … number” value (Week 32, Adalimumab 40 mg eow (n = 9)) was 0 and the “Patients Eligible … number” value (Week 32, Placebo/Adalimumab 40 mg eow (n = 13)) was 2. For the same substance, the “Percentage of patients who achieved PASI 100” value (Week 36, adalimumab 40 mg eow, NRI) was 22%, the “Percentage of patients who achieved PASI 75” value [10] was 64% and the “Percentage of patients who achieved PASI 90” value [10] was 49%. For the same substance, the “Percentage of patients who achieved PASI 100” value (Week 36, adalimumab 40 mg weekly, NRI) was 36%, the “Percentage of patients who achieved PASI 75” value [11] was 68% and the “Percentage of patients who achieved PASI 90” value [11] was 58%. The “Percentage of patients who achieved PASI 100” value (Week 36, placebo/adalimumab 40 mg eow (adalimumab from Week 12), NRI) was 19%, the “Percentage of patients who achieved PASI 75” value [12] was 62% and the “Percentage of patients who achieved PASI 90” value [12] was 43%. For the same substance, the “Patients Eligible … number” value (Week 44, Adalimumab 40 mg eow (n = 9)) was 1, the “Patients Eligible … number” value (Week 44, Placebo/Adalimumab 40 mg eow (n = 13)) was 1 and the “Patients Eligible … number” value (Week 52, Adalimumab 40 mg eow (n = 9)) was 0. The “Patients Eligible … number” value (Week 52, Placebo/Adalimumab 40 mg eow (n = 13)) was 3, the “Patients Eligible … number” value (Week 60, Adalimumab 40 mg eow (n = 9)) was 2 and the “Patients Eligible … number” value (Week 60, Placebo/Adalimumab 40 mg eow (n = 13)) was 0. The “Percentage of patients who achieved PASI 100” value (Week 60, adalimumab 40 mg eow, NRI) was 16%, the “PASI 50 (% patients)” value [13] was 67% and the “Percentage of patients who achieved PASI 75” value [13] was 58%. For the same substance, the “Percentage of patients who achieved PASI 90” value [13] was 33% and the “Percentage of patients who achieved PASI 100” value (Week 60, adalimumab 40 mg weekly, NRI) was 26%.
